According to ChEMBL document CHEMBL3392926, “Antiprotozoal Activity Profiling of Approved Drugs: A Starting Point toward Drug Repositioning”:

Legend:
[1] = cells; assay type: functional, cell-based; details: Mus musculus, NMRI, BalbC or CD1 mice, Macrophage, 96 h
Description: DNDI: Cytotoxicity in Vitro, 96 hour, in mouse macrophages (infected-amastigotes)

[2] = cells; assay type: functional, cell-based; details: Rattus norvegicus, L6, 72 h
Description: DNDI: Cytotoxicity in Vitro, 72 hour, in rat skeletal myoblast cells

[3] = test system: Trypanosoma brucei rhodesiense; experiment: microbe, parasite or virus in culture; assay type: functional, organism-based, STIB 900
Description: DNDI: HAT in Vitro, 72 hour

[4] = test system: Leishmania donovani; experiment: microbe, parasite or virus in culture; assay type: functional, organism-based, MHOM/ET/67/L82
Description: DNDI: Leish (macro) in Vitro, 96 hour

[5] = test system: Plasmodium falciparum; experiment: microbe, parasite or virus in culture; assay type: functional, organism-based, K1
Description: DNDI: Malaria in Vitro, 72 hour

[6] = test system: Trypanosoma cruzi; experiment: microbe, parasite or virus in culture; assay type: functional, organism-based, Tulahuen C4 (LacZ)
Description: DNDI: Chagas in Vitro, 96 hour

[7] = test system: Leishmania donovani; experiment: microbe, parasite or virus in culture; assay type: functional, organism-based, MHOM/ET/67/L82; remark: listed apart in the source
Description: DNDI: Leish (axenic) in Vitro, 72 hour

[8] = Trypanosoma brucei, STIB 900, 72 h
[9] = Leishmania donovani, MHOM/ET/67/L82, 96 h
[10] = Plasmodium falciparum, K1, 72 h
[11] = Trypanosoma cruzi, Tulahuen C4 (LacZ), 96 h
[12] = Leishmania donovani, MHOM/ET/67/L82, 72 h

| Compound | IC50 [1] [µM] | IC50 [2] [µM] | IC50 [3, 8] [µM] | IC50 [4, 9] [µM] | IC50 [5, 10] [µM] | IC50 [6, 11] [µM] | IC50 [7, 12] [µM] | IC50 [3] [µM] | IC50 [6] [µM] | IC50 [7] [µM] | IC50 [4] [µM] | IC50 [5] [µM] |
| --- | --- | --- | --- | --- | --- | --- | --- | --- | --- | --- | --- | --- |
| CC(C)CN(C[C@@H](O)[C@H](Cc1ccccc1)NC(=O)O[C@H]1CCOC1)S(=O)(=O)c1ccc(N)cc1 | > 59.3 | 160 | 28.5 | > 59.3 | 15.2 | – | – | – | – | – | – | – |
| CNCC[C@H](Oc1ccc(C(F)(F)F)cc1)c1ccccc1 | 32.3 | 15 | – | – | – | – | – | – | – | – | – | – |
| CC(C)CN(C[C@@H](O)[C@H](Cc1ccccc1)NC(=O)O[C@H]1CO[C@H]2OCC[C@H]21)S(=O)(=O)c1ccc(N)cc1 | – | – | 31.4 | > 54.8 | 46.9 | 92.2 | – | – | – | – | – | – |
| CSc1ccc2c(c1)N(CC[C@H]1CCCCN1C)c1ccccc1S2 | > 81 | > 243 | – | – | – | – | – | – | – | – | – | – |
| C[C@@H](Cc1cccc(C(F)(F)F)c1)NCCOC(=O)c1ccccc1 | > 85.4 | 49.1 | 21.1 | 54.4 | 6.52 | 73.7 | – | – | – | – | – | – |
| CCC[C@@]1(CCc2ccccc2)CC(O)=C([C@H](CC)c2cccc(NS(=O)(=O)c3ccc(C(F)(F)F)cn3)c2)C(=O)O1 | > 49.8 | 53.4 | 26.4 | > 49.8 | 44.6 | 28.2 | 1.64 | – | – | – | – | – |
| CC(C)(C)NC(=O)[C@@H]1CC2CCCCC2CN1C[C@@H](O)[C@H](Cc1ccccc1)NC(=O)[C@H](CC(N)=O)NC(=O)c1ccc2ccccc2n1 (some centres undefined) | > 44.7 | 18.2 | 12.3 | > 44.7 | 11.9 | 17.1 | 77.4 | – | – | – | – | – |
| C[C@H](N)C12CC3CC(CC(C3)C1)C2 | > 167 | 311 | 13.8 | > 167 | 0.97 | – | – | – | – | – | – | – |
| CC(C)(C)NC(=O)[C@@H]1CN(Cc2cccnc2)CCN1C[C@@H](O)C[C@@H](Cc1ccccc1)C(=O)N[C@H]1c2ccccc2C[C@H]1O | > 42.3 | > 141 | 48.2 | > 42.3 | 6.03 | 93.5 | > 141 | – | – | – | – | – |
| Cc1c(O)cccc1C(=O)N[C@@H](CSc1ccccc1)[C@H](O)CN1C[C@H]2CCCC[C@H]2C[C@H]1C(=O)NC(C)(C)C | > 52.8 | 12.1 | 20.6 | 20.2 | 10.4 | 10.2 | 9.62 | – | – | – | – | – |
| Nc1nc(N)c2nc(-c3ccccc3)c(N)nc2n1 | > 11.8 | 8.53 | 21.7 | > 11.8 | 17.2 | 22.7 | – | – | – | – | – | – |
| CN1CC(=O)N2[C@H](c3ccc4c(c3)OCO4)c3[nH]c4ccccc4c3C[C@@H]2C1=O | > 77 | 221 | 97.6 | > 77 | > 12.8 | 8.6 | 40.1 | – | – | – | – | – |
| CCCSc1ccc2[nH]c(NC(=O)OC)nc2c1 [ALBENDAZOLE] | 11.3 | 0.41 | 14.7 | > 3.77 | – | 12.3 | > 113 | – | – | – | – | – |
| NC12CC3CC(CC(C3)C1)C2 [AMANTADINE] | > 198 | 215 | 52.8 | > 198 | 5.67 | – | > 595 | – | – | – | – | – |
| CN(C)CCC=C1c2ccccc2CCc2ccccc21 [AMITRIPTYLINE] | 36.1 | 42.2 | 3.03 | > 10.8 | 1.16 | 35.1 | – | – | – | – | – | – |
| Clc1ccc2c(c1)C(N1CCNCC1)=Nc1ccccc1O2 [AMOXAPINE] | 31.9 | 16.2 | – | – | – | – | – | – | – | – | – | – |
| O=C(O)COCCN1CCN(C(c2ccccc2)c2ccc(Cl)cc2)CC1 (centres undefined) [CETIRIZINE] | > 70.5 | 149 | 99.5 | > 70.5 | 20 | – | – | – | – | – | – | – |
| CCN(CC)CCCC(C)Nc1ccnc2cc(Cl)ccc12 (centres undefined) [CHLOROQUINE] | > 58.9 | 50.6 | 3.81 | > 58.9 | – | 99.2 | > 196 | – | – | – | – | – |
| CN/C(=N\CCSCc1nc[nH]c1C)NC#N [CIMETIDINE] | > 119 | 302 | > 396 | > 119 | 29.2 | – | > 396 | – | – | – | – | – |
| CN(C)CCCN1c2ccccc2CCc2ccc(Cl)cc21 [CLOMIPRAMINE] | 31.8 | 19.8 | – | – | – | – | – | – | – | – | – | – |
| Clc1ccc(C(OCCN2CCCCC2)c2ccccc2)cc1 (centres undefined) [CLOPERASTINE] | 90.9 | 43.4 | 4.91 | > 30.3 | 0.87 | 9.46 | – | – | – | – | – | – |
| Nc1ccc(S(=O)(=O)c2ccc(N)cc2)cc1 [DAPSONE] | > 121 | 204 | – | > 121 | – | – | > 403 | – | – | – | – | – |
| CCN(CC)CCOc1ccc(/C(=C(/Cl)c2ccccc2)c2ccccc2)cc1 [ENCLOMIPHENE] | 24.6 | 13.1 | – | – | – | – | – | – | – | – | – | – |
| CCn1cc(C(=O)O)c(=O)c2cc(F)c(N3CCNCC3)nc21 [ENOXACIN] | > 93.7 | 25 | – | > 93.7 | 76.8 | – | > 312 | – | – | – | – | – |

| Compound | IC50 [1] [µM] | IC50 [2] [µM] | IC50 [3, 8] [µM] | IC50 [4, 9] [µM] | IC50 [5, 10] [µM] | IC50 [6, 11] [µM] | IC50 [7, 12] [µM] | IC50 [3] [µM] | IC50 [6] [µM] | IC50 [7] [µM] | IC50 [4] [µM] | IC50 [5] [µM] |
| --- | --- | --- | --- | --- | --- | --- | --- | --- | --- | --- | --- | --- |
| CC(=O)OCC(CCn1cnc2cnc(N)nc21)COC(C)=O [FAMCICLOVIR] | > 93.4 | 180 | – | > 93.4 | > 156 | – | > 311 | – | – | – | – | – |
| OC(Cn1cncn1)(Cn1cncn1)c1ccc(F)cc1F [FLUCONAZOLE] | > 98 | > 294 | – | > 98 | – | 9.96 | – | – | – | – | – | – |
| OCCN1CCN(CCCN2c3ccccc3Sc3ccc(C(F)(F)F)cc32)CC1 [FLUPHENAZINE] | 22.9 | 11.5 | – | – | – | – | – | – | – | – | – | – |
| Nc1nc2c(ncn2COC(CO)CO)c(=O)[nH]1 [GANCICLOVIR] | > 118 | 179 | – | > 118 | > 196 | – | > 392 | – | – | – | – | – |
| CC(=O)N1CCN(c2ccc(OCC3COC(Cn4ccnc4)(c4ccc(Cl)cc4Cl)O3)cc2)CC1 (centres undefined) [KETOCONAZOLE] | – | 51 | 33.1 | > 18.8 | – | 0.27 | 38.8 | – | – | – | – | – |
| CN1CCC(=C2c3ccccc3CC(=O)c3sccc32)CC1 [KETOTIFEN] | > 97 | 147 | 15.2 | > 97 | 0.75 | – | > 291 | – | – | – | – | – |
| Cc1oncc1C(=O)Nc1ccc(C(F)(F)F)cc1 [LEFLUNOMIDE] | > 111 | 124 | – | > 111 | > 18.5 | – | 21.8 | – | – | – | – | – |
| O=C(O)c1nn(Cc2ccc(Cl)cc2Cl)c2ccccc12 [LONIDAMINE] | > 93.4 | 273 | – | > 93.4 | > 15.6 | – | 8.66 | – | – | – | – | – |
| Cc1ncc([N+](=O)[O-])n1CCO [METRONIDAZOLE] | > 175 | 339 | – | > 175 | – | – | – | – | – | – | – | – |
| O=C1CN(/N=C/c2ccc([N+](=O)[O-])o2)C(=O)N1 [NITROFURANTOIN] | 125 | 90.3 | 0.5 | > 41.8 | – | 4.35 | 2.12 | – | – | – | – | – |
| Cc1ncc([N+](=O)[O-])n1CC(O)CCl (centres undefined) [ORNIDAZOLE] | > 136 | > 408 | 25.9 | > 136 | – | – | > 136 | – | – | – | – | – |
| Nc1nc(O)c2ncn(CCC(CO)CO)c2n1 [PENCICLOVIR] | > 118 | 220 | > 395 | > 118 | – | – | > 395 | – | – | – | – | – |
| Cc1nc2ccccn2c(=O)c1CCN1CCC(C(=O)c2ccc(F)cc2)CC1 [PIRENPERONE] | > 76.2 | 232 | 30 | > 76.2 | 4.35 | – | – | – | – | – | – | – |
| CN1CCC(=C2c3ccccc3CCc3sccc32)CC1 [PIZOTYLINE] | > 102 | 45 | 3.99 | > 33.9 | 1.86 | 30.6 | – | – | – | – | – | – |
| NC(=O)c1cnccn1 [PYRAZINAMIDE] | > 244 | 458 | > 812 | > 244 | – | – | > 812 | – | – | – | – | – |
| CCc1nc(N)nc(N)c1-c1ccc(Cl)cc1 [PYRIMETHAMINE] | > 12.1 | 2.51 | 6.75 | > 12.1 | – | 5.71 | – | – | – | – | – | – |
| CC(C)c1nc(CN(C)C(=O)N[C@H](C(=O)N[C@@H](Cc2ccccc2)C[C@H](O)[C@H](Cc2ccccc2)NC(=O)OCc2cncs2)C(C)C)cs1 [RITONAVIR] | – | – | 4.3 | > 41.6 | 16.2 | 20.7 | 8.97 | – | – | – | – | – |
| Cn1c([N+](=O)[O-])cnc1N1CCN(S(C)(=O)=O)C1=O [SATRANIDAZOLE] | > 104 | > 311 | 18.7 | > 104 | – | 19.1 | 10.4 | – | – | – | – | – |
| Cc1ncc([N+](=O)[O-])n1CC(C)O (centres undefined) [SECNIDAZOLE] | > 161 | > 483 | 28.7 | > 161 | – | > 161 | > 161 | – | – | – | – | – |
| Cc1cn([C@H]2C=C[C@@H](CO)O2)c(=O)[nH]c1=O [STAVUDINE] | > 134 | 266 | – | > 134 | – | – | > 446 | – | – | – | – | – |
| Nc1ccc(S(=O)(=O)Nc2ncccn2)cc1 [SULFADIAZINE] | 40.1 | 20.6 | 18.4 | > 12 | 1.44 | 24.9 | – | – | – | – | – | – |
| Cc1cn([C@H]2C[C@H](N=[N+]=[N-])[C@@H](CO)O2)c(=O)[nH]c1=O [ZIDOVUDINE] | > 112 | 207 | – | > 112 | – | – | > 374 | – | – | – | – | – |
| AURANOFIN | – | – | – | – | – | – | – | 0.01 | 2.27 | 0.11 | > 1.47 | 1.67 |
